Measured values taken from publication PMC2994747, “Molecular Characterization of c-Abl/c-Src Kinase Inhibitors Targeted against Murine Tumour Progenitor Cells that Express Stem Cell Markers” (PLoS ONE, 2010).
Read-outs that look alike come from different tables or passages of the source.

Columns and labels:
HepG2 [1] = assay: MTS cell viability assay; format: cell-based, human
Protocol: (§1) Three human and eleven murine cancer cell lines were used. The human NSCLC cell line A549 (ACC 107) and the human colorectal carcinoma cell line CaCo2 (ACC 169) were obtained from Deutsche Sammlung von Mikroorganismen und Zellkulturen (DSMZ, Braunschweig, Germany). The human hepatocellular carcinoma cell line HepG2 (HB-8065) was obtained from American Type Culture Collection (Manassas, VA, USA). The 11 murine NSCLC cell lines were established as described recently. Cells were grown in monolayer cultures in DMEM containing 10% foetal calf serum, 4 mmol/l L-glutamine and 2% Penicillin/Streptomycin at 37°C in a humidified atmosphere of 95% air and 5% CO2.
(§2) Cell culture viability was monitored by CellTiter96® AQueous One Solution Cell Proliferation Assay (Promega GmbH, Mannheim, Germany). The cells were seeded in triplicates in 96-well microtitre plates and treated with the dual kinase inhibitors or vehicle (0.2% DMSO). After 24 h or 96 h of treatment the MTS tetrazolium reagent was added to the cells and incubated for 1 h. Absorbance at 490 nm was assayed with a Victor3 Wallac 1420 Multilabel counter (PerkinElmer, Waltham, MA, USA).

CaCo2 [2] = assay: MTS cell viability assay; format: cell-based, human
Protocol: as §1, §2

A549 [3] = assay: MTS cell viability assay; format: cell-based, human
Protocol: as §1, §2

GammaD12 [4] = assay: MTS cell viability assay; format: cell-based, mouse
Protocol: as §1, §2

A2C12 [5] = assay: MTS cell viability assay; format: cell-based, mouse
Protocol: as §1, §2

BetaD5 [6] = assay: MTS cell viability assay; format: cell-based, mouse
Protocol: as §1, §2

GammaA3 [7] = assay: MTS cell viability assay; format: cell-based, mouse
Protocol: as §1, §2

HepG2 [8] = assay: Cell cycle analysis by flow cytometry; format: cell-based, human; details: IC50 concentration, 96 h
Protocol: (§3) CycleTEST™ PLUS DNA Reagent Kit (Becton Dickinson GmbH, Heidelberg, Germany) for cell cycle analysis was used, according to the instructions of the manufacturer. Briefly, the cells were harvested with trypsin, washed with PBS, and resuspended in CycleTEST Buffer. The cells were centrifuged and resuspended in solution A. After incubation for 10 min at room temperature, solution B was added and incubated. After adding solution C, the samples were incubated at 4°C protected from light. The samples were stored on ice and protected from light until analysis by FACScan flow cytometer (Becton Dickinson GmbH, Heidelberg, Germany).

A549 [9] = assay: Cell cycle analysis by flow cytometry; format: cell-based, human; details: IC50 concentration, 96 h
Protocol: as §3

GammaD12 [10] = assay: Cell cycle analysis by flow cytometry; format: cell-based, mouse; details: IC50 concentration, 96 h
Protocol: as §3

A2C12 [11] = assay: Cell cycle analysis by flow cytometry; format: cell-based, mouse; details: IC50 concentration, 96 h
Protocol: as §3

BetaD5 [12] = assay: Cell cycle analysis by flow cytometry; format: cell-based, mouse; details: IC50 concentration, 96 h
Protocol: as §3

GammaA3 [13] = assay: Cell cycle analysis by flow cytometry; format: cell-based, mouse; details: IC50 concentration; for Cells in G1 phase / Cells in G2 phase / Cells in S phase: 96 h
Protocol: as §3

CaCo2 [14] = assay: Cell cycle analysis by flow cytometry; format: cell-based, human; details: IC50 concentration, 96 h
Protocol: as §3

[15] = 96 h, read-out: Calculated IC50 after daily treatment for 96 h
[16] = Mus musculus, 24 h, read-out: Calculated IC50 after single treatment for 24 h
[17] = Mus musculus, 96 h, read-out: Calculated IC50 after daily treatment for 96 h
[18] = 24 h, read-out: Calculated IC50 after single treatment for 24 h
[19] = MTS, 24 h, read-out: Calculated IC50 after single treatment for 24 h
[20] = MTS, 96 h, read-out: Calculated IC50 after daily treatment for 96 h
[21] = daily treatment 96 h, vs DMSO 0.2%

Row | IC50 (A549 [3]; [15]) [µM] | IC50 (HepG2 [1]; [18]) [µM] | IC50 (HepG2 [1]; [15]) [µM] | IC50 (CaCo2 [2]; [18]) [µM] | IC50 (CaCo2 [2]; [15]) [µM] | IC50 (A549 [3]; [18]) [µM] | SMILES | IC50 (GammaD12 [4]; [19]) [µM] | IC50 (GammaD12 [4]; [20]) [µM] | IC50 (A2C12 [5]; [18]) [µM] | IC50 (A2C12 [5]; [15]) [µM] | IC50 (BetaD5 [6]; [18]) [µM] | IC50 (BetaD5 [6]; [15]) [µM] | IC50 (GammaA3 [7]; [18]) [µM] | IC50 (GammaA3 [7]; [15]) [µM] | Cells in G1 phase (A549 [9]) [%] | Cells in G2 phase (A549 [9]) [%] | Cells in S phase (A549 [9]) [%] | Cells in G1 phase (GammaD12 [10]) [%] | Cells in G2 phase (GammaD12 [10]) [%] | Cells in S phase (GammaD12 [10]) [%] | also measured
1 | 5.2 ± 2.2 | – | – | – | – | – | Cc1nc(Nc2ncc(C(=O)Nc3c(C)cccc3Cl)s2)cc(N2CCN(CCO)CC2)n1 [Dasatinib, reference compound] | – | – | – | – | – | – | – | – | – | – | – | – | – | – | IC50 (HepG2 [1]; Homo sapiens, 24 h, read-out: Calculated IC50 after single treatment for 24 h): 26.2 ± 2.8 µM; IC50 (HepG2 [1]; Homo sapiens, 96 h, read-out: Calculated IC50 after daily treatment for 96 h): 5 ± 0.82 µM; IC50 (CaCo2 [2]; Homo sapiens, Caco-2, 24 h, read-out: Calculated IC50 after single treatment for 24 h): > 100 µM; IC50 (CaCo2 [2]; Homo sapiens, Caco-2, 96 h, read-out: Calculated IC50 after daily treatment for 96 h): 0.44 ± 0.25 µM; IC50 (A549 [3]; Homo sapiens, A549, 24 h, 24 h, read-out: Calculated IC50 after single treatment for 24 h): 39.8 ± 5.8 µM; IC50 (A549 [3]; Homo sapiens, A549, 96 h, 96 h, read-out: Calculated IC50 after daily treatment for 96 h): 5 µM; IC50 (GammaD12 [4]; Mus musculus, 96 h, read-out: IC50 (MTS) after treatment for 96 h): 0.8 µM; IC50 (GammaD12 [4]; Mus musculus, MTS, 24 h, read-out: Calculated IC50 after single treatment for 24 h): 2.6 ± 1 µM; IC50 (A2C12 [5]; [16]): 9.8 ± 1.5 µM; IC50 (A2C12 [5]; [17]): 10.3 ± 1.6 µM; IC50 (BetaD5 [6]; [16]): 5.2 ± 0.6 µM; IC50 (BetaD5 [6]; [17]): 0.84 ± 0.05 µM; IC50 (GammaA3 [7]; [16]): 1.18 ± 0.1 µM; IC50 (GammaA3 [7]; [17]): 0.32 ± 0.07 µM
2 | > 20 | > 100 | 16.2 ± 6.3 | > 100 | > 20 | > 100 | CCN(CC)c1nc(SC)nc2c1cnn2CC(Cl)c1ccccc1 (stereo not shown) [Si27] | > 100 | > 20 | > 100 | > 20 | > 100 | > 20 | > 100 | > 20 | – | – | – | – | – | – | –
3 | 8.2 ± 0.5 | 40.3 ± 0.9 | 9.1 ± 1.7 | 40.3 ± 0.9 | 5.7 ± 0.4 | 22.7 ± 0.6 | CSc1nc(NCc2ccccc2)c2cnn(CC(Cl)c3ccc(F)cc3)c2n1 (stereo not shown) [Si65] | 21 ± 1 | 7.1 ± 0.6 | 25.9 ± 4.3 | 8.6 ± 1.3 | 22.6 ± 1.9 | 10.6 ± 0.1 | 31.9 ± 1.6 | 9.9 ± 1.4 | 67.2 | 6.3 | 26.6 | 33 | 8.7 | 58.4 | Cells in G1 phase (HepG2 [8]): 62.7%; Cells in G2 phase (HepG2 [8]): 8.5%; Cells in S phase (HepG2 [8]): 28.1%; Cells in G1 phase (A2C12 [11]): 73.4%; Cells in G2 phase (A2C12 [11]): 10.4%; Cells in S phase (A2C12 [11]): 16.2%; Cells in G1 phase (BetaD5 [12]): 58.4%; Cells in G2 phase (BetaD5 [12]): 24.7%; Cells in S phase (BetaD5 [12]): 16.9%; Cells in G1 phase (GammaA3 [13]): 68%; Cells in G2 phase (GammaA3 [13]): 17.3%; Cells in S phase (GammaA3 [13]): 14.6%
4 | 10.2 ± 0.5 | 82.1 ± 5.3 | > 100 | 82.1 ± 5.3 | 7.6 ± 0.3 | 96 ± 35.1 | CSc1nc(NCc2ccccc2)c2cnn(CC(Cl)c3ccc(Cl)cc3)c2n1 (stereo not shown) [Si70] | 21.6 ± 1.6 | 7.9 ± 3.4 | 68.5 ± 16.8 | 9.2 ± 0.3 | 31 ± 5.1 | 11 ± 0.3 | 40.7 ± 6.2 | 13.5 ± 1.1 | 77.3 | 4.1 | 18.6 | 43.7 | 7.7 | 48.7 | Cells in G1 phase (CaCo2 [14]): 65.9%; Cells in G2 phase (CaCo2 [14]): 6.8%; Cells in S phase (CaCo2 [14]): 27.3%; Cells in G1 phase (A2C12 [11]): 63.3%; Cells in G2 phase (A2C12 [11]): 10.1%; Cells in S phase (A2C12 [11]): 26.6%; Cells in G1 phase (BetaD5 [12]): 56.6%; Cells in G2 phase (BetaD5 [12]): 25.7%; Cells in S phase (BetaD5 [12]): 17.7%; Cells in G1 phase (GammaA3 [13]): 89%; Cells in G2 phase (GammaA3 [13]): 8.2%; Cells in S phase (GammaA3 [13]): 2.8%; Decrease in the S-phase compared to the vehicle treatment (GammaA3 [13]; [21]): up to 91%; Increase in G0/G1 compared to the vehicle treatment (GammaA3 [13]; [21]): up to 92%
5 | 11.2 ± 1 | 72.9 ± 6.4 | 22.6 ± 4.3 | 72.9 ± 6.4 | 7.5 ± 0.2 | > 100 | CSc1nc(NCc2ccccc2)c2cnn(CC(Br)c3ccccc3)c2n1 (stereo not shown) [Si81] | 17.4 ± 2.6 | 14.1 ± 0.2 | 30.8 ± 2.5 | 12.1 ± 2.1 | 20.6 ± 4 | 19.5 ± 3.1 | 26.8 ± 1.5 | > 20 | 62.8 | 6.3 | 30.9 | 33.3 | 8.8 | 57.9 | Cells in G1 phase (HepG2 [8]): 58.8%; Cells in G2 phase (HepG2 [8]): 9.5%; Cells in S phase (HepG2 [8]): 31.7%; Cells in G1 phase (CaCo2 [14]): 58.7%; Cells in G2 phase (CaCo2 [14]): 6.9%; Cells in S phase (CaCo2 [14]): 34.3%; Cells in G1 phase (A2C12 [11]): 66.7%; Cells in G2 phase (A2C12 [11]): 10.7%; Cells in S phase (A2C12 [11]): 22.6%; Cells in G1 phase (BetaD5 [12]): 61.9%; Cells in G2 phase (BetaD5 [12]): 22%; Cells in S phase (BetaD5 [12]): 16.1%
